The text below walks through data of patent US8946413B2 (Pfizer Inc., priority 2008, dated 2015).

The experiment deals with T1, CCR2 (Homo sapiens, UniProt P41597).
T1 construct: (leukophoresis pack); host or cells: human peripheral blood mononuclear cells (PBMCs) from a normal human leukophoresis pack
Put plainly: hCCR2 (125-I hMCP-1) small molecule binding assay on human PBMCs. As to conditions: 125I-MCP-1, human PBMCs. An excerpt: The CCR2 antagonist activity of compounds of the invention can be reported as the inhibitor concentration required for 50% inhibition (IC50 values) of specific binding in receptor binding assays using 125I-labeled MCP-1, as ligand, and Peripheral Blood Mononuclear Cells (PBMCs) prepared from normal human whole blood via density gradient centrifugation. Specific binding is defined as the total binding (e.g., total cpm on filters) minus the non-specific binding. Non-specific binding is defined as the amount of cpm still defected in the presence of excess unlabeled competitor (e.g., MCP-1),
Human PBMCs were used to test compounds of the invention in a binding assay. For example, 200,000 to 500,000 cells were incubated with 0.1 to 0.2 nM 125I-labeled MCP-1, with or without unlabeled competitor (10 nM MCP-1) or various concentrations of compounds to be tested. 125I-labeled MCP-1, were prepared by suitable methods or purchased from commercial vendors (Perkin Elmer, Boston Mass.). The binding reactions were performed in 50 to 250 μL of a binding buffer consisting of […] pH 7.2, and 0.1% BSA (bovine serum albumin), for 30 minutes at room temperature. The binding reactions were terminated by harvesting the membranes by rapid filtration through glass fiber filters (Perkin Elmer) which was presoaked in 0.3% polyethyleneimine or Phosphate Buffered Saline (PBS). The filters were rinsed with approximately 600 μL of binding buffer containing, 0.5 M NaCl or PBS, then dried, and the amount of bound radioactivity was determined by counting on a Gamma Counter (Perkin Elmer).
More specifically, the following assay may be employed to determine IC50 values for the compounds of the present invention.
hCCR2 (125-I hMCP-1) Small Molecule Binding Assay
Normal human leukophoresis pack contents, available from Biological Specialty Corporation, Colmar, Pa., is diluted 1:1 with PBS, divided into 50 ml conical tubes (preferably less than 40 mls per tube), and underlayed with 10 mls of Ficoll-Paque PLUS (GE Healthcare 17-1440-02). The tubes are centrifuged at 2800 rpm in a clinical centrifuge at room temperature for 30 mins, with no brake. The plasma layer is suctioned, and the buffycoat layer is collected. The collected buffycoat layer is washed twice with 50 mls PBS, and centrifuged at 1400 rpm with brake. The cells are counted. The cells are then diluted to 1×10^7 cells per ml in binding buffer.
96 well plates (such as, for example, Millipore MultiScreen96 plates) are pre-wet with about 100 μl binding buffer (RPMI+0.1% BSA+20 mM HEPES), and blotted just prior to compound addition.
5 μl of 50 μM test compounds in 100% DMSO are dotted onto U-bottom polypropylene 96-well plates.
245 μl per well of Binding Buffer is added to each well for 1 μM compound concentration in 2% DMSO.
50 μl of 1 μM compound is transferred to pre-wetted Millipore plates. 50 μl per well of 1×10E7 cells per ml of freshly prepared human PBMCs are added.
The samples are pre-incubated at room temperature for 30 minutes or 1 hour.
50 μl of 450 pM 125-I-hMCP-1 (Perkin-Elmer/NEN cat#NEX332025UC) is added for a final concentration 125-I-hMCP-1 of 150 pM per well.
The final test compound concentration is 0.333 uM in 150 μl total volume with 0.67% DMSO in all wells. Controls for this assay consist of 0% inhibition and 100% inhibition with 1 uM hMCP-1 (saturating conditions). All wells are run in duplicate. Controls may be in replicates of eight.
The samples are incubated at room temperature for 30 minutes.
The buffer is suctioned through the Millipore plates. The plates are washed three times with Wash Buffer (PRMI+0.1% BSA+20 mM HEPES+ 0.4 M NaC).
The plate underdrain is removed. The plate filters are allowed to dry. The filters are then punched out into plastic tubes.
Finally, the sample is counted an a Gamma Counter.
All IC50 plates were repeated for an n=2.
The following table summarizes the IC50 values identified through the described assay.

Setting [1] is: 30 min preincubation, read-out: IC50 (nM) 30 min preinc.
Where [2] appears, read: 1 hr preincubation, read-out: IC50 (nM) 1 hr preinc.

Molecules are shown by their SMILES. Where two headings read alike, the source gives them in different places.

T1 sequence (P41597 whole entry): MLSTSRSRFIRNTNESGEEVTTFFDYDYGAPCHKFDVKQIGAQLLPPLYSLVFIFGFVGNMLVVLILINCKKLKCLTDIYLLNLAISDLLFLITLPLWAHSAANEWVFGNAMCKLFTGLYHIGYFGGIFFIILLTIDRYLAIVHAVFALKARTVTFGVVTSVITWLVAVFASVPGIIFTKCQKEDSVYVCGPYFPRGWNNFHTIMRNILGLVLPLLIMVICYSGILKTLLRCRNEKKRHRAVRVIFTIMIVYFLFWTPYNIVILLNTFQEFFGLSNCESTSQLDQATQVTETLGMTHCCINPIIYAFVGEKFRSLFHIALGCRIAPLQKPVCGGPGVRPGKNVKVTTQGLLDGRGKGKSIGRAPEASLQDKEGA

As to `CO[C@@H]1COCC[C@@H]1N[C@@H]1CC[C@@](C(=O)N2C[C@@H]3C[C@H]2CN3c2ccnc(C(F)(F)F)c2)(C(C)C)C1` [Example 17, 1,5-anhydro-2,3-dideoxy-3-{[(1R,3S)-3-isopropyl-3-({(1S,4S)-5-[2-(trifluoromethyl)pyridin-4-yl]-2,5-diazabicyclo[2.2.1]hept-2-yl}carbonyl)cyclopentyl]amino}-4-O-methyl-D-erythro-pentitol], the IC50 runs as follows: under setting [1], 13.7 nM; under setting [2], 5.8 nM. On the same counts, the results for `CO[C@@H]1COCC[C@@H]1N[C@@H]1CC[C@@](C(=O)N2C[C@@H]3C[C@H]2CN3c2cc(C(F)(F)F)cnn2)(C(C)C)C1` [Example 18, 1,5-anhydro-2,3-dideoxy-3-{[(1R,3S)-3-isopropyl-3-({(1S,4S)-5-[5-(trifluoromethyl)pyridazin-3-yl]-2,5-diazabicyclo[2.2.1]hept-2-yl}carbonyl)cyclopentyl]amino}-4-O-methyl-D-erythro-pentitol] are 37.6 nM and 8.5 nM. Taken in the same sequence, the figures for `CO[C@@H]1COCC[C@@H]1N[C@@H]1CC[C@@](C(=O)N2C[C@@H]3C[C@H]2CN3c2cc(C(F)(F)F)nc(C(F)(F)F)c2)(C(C)C)C1` [Example 19, 1,5-anhydro-3-{[(1R,3S)-3-isopropyl-3-({(1S,4S)-5-[2,6-bis(trifluoromethyl)pyridin-4-yl]-2,5-diazabicyclo[2.2.1]hept-2-yl}carbonyl)-3-isopropylcyclopentyl]amino}-2,3-dideoxy-4-O-methyl-D-erythro-pentitol] were 20.4 nM and 6.35 nM. Take `CO[C@@H]1COCC[C@@H]1N[C@@H]1CC[C@@](C(=O)N2C[C@@H]3C[C@H]2CN3c2nccc(C(F)(F)F)c2F)(C(C)C)C1` [Example 20, 1,5-anhydro-2,3-dideoxy-3-{[(1R,3S)-3-({(1S,4S)-5-[3-fluoro-4-(trifluoromethyl)pyridin-2-yl]-2,5-diazabicyclo[2.2.1]hept-2-yl}carbonyl)-3-isopropylcyclopentyl]amino}-4-O-methyl-D-erythro-pentitol]: under setting [1], the IC50 was 8.59 nM.

For `CO[C@@H]1COCC[C@@H]1N[C@@H]1CC[C@@](C(=O)N2C[C@@H]3C[C@H]2CN3c2cc(C(F)(F)F)cc(C)n2)(C(C)C)C1` [Example 21, 1,5-anhydro-2,3-dideoxy-3-{[(1R,3S)-3-isopropyl-3-({(1S,4S)-5-[6-methyl-4-(trifluoromethyl)pyridin-2-yl]-2,5-diazabicyclo[2.2.1]hept-2-yl}carbonyl)cyclopentyl]amino}-4-O-methyl-D-erythro-pentitol], the IC50 under setting [2] was determined as 3.1 nM.

Turning to `CO[C@@H]1COCC[C@@H]1N[C@@H]1CC[C@@](C(=O)N2C[C@@H]3C[C@H]2CN3c2cccc(C(F)(F)F)c2)(C(C)C)C1` [Example 22, 1,5-anhydro-2,3-dideoxy-3-{[(1R,3S)-3-isopropyl-3-({(1S,4S)-5-[3-(trifluoromethyl)phenyl]-2,5-diazabicyclo[2.2.1]hept-2-yl}carbonyl)cyclopentyl]amino}-4-O-methyl-D-erythro-pentitol], the IC50 under setting [2] worked out at 1.1 nM. Same read-out and setting: then `CO[C@@H]1COCC[C@@H]1N[C@@H]1CC[C@@](C(=O)N2C[C@@H]3C[C@H]2CN3c2cc(F)cc(C(F)(F)F)c2)(C(C)C)C1` [Example 23, 1,5-anhydro-2,3-dideoxy-3-{[(1R,3S)-3-({(1S,4S)-5-[3-fluoro-5-(trifluoromethyl)phenyl]-2,5-diazabicyclo[2.2.1]hept-2-yl}carbonyl)-3-isopropylcyclopentyl]amino}-4-O-methyl-D-erythro-pentitol], with 0.94 nM.

As to `CO[C@@H]1COCC[C@@H]1N[C@@H]1CC[C@](CC(F)F)(C(=O)N2C[C@@H]3C[C@H]2CN3c2cc(C(F)(F)F)ncn2)C1` [Example 24, 1,5-anhydro-2,3-dideoxy-3-{[(1R,3S)-3-(2,2-difluoroethyl)-3-({(1S,4S)-5-[6-(trifluoromethyl)pyrimidin-4-yl]-2,5-diazabicyclo[2.2.1]hept-2-yl}carbonyl)cyclopentyl]amino}-4-O-methyl-D-erythro-pentitol], the IC50 worked out at 79.7 nM under setting [1] and 8.87 nM under setting [2]. Taken in the same sequence, the figures for `CO[C@@H]1COCC[C@@H]1N[C@@H]1CC[C@](CC(F)F)(C(=O)N2C[C@@H]3C[C@H]2CN3c2cc(C(F)(F)F)ccn2)C1` [Example 25, 1,5-anhydro-2,3-dideoxy-3-{[(1R,3S)-3-(2,2-difluoroethyl)-3-({(1S,4S)-5-[4-(trifluoromethyl)pyridin-2-yl]-2,5-diazabicyclo[2.2.1]hept-2-yl}carbonyl)cyclopentyl]amino}-4-O-methyl-D-erythro-pentitol] were 6.58 nM and 0.93 nM. Regarding `CO[C@@H]1COCC[C@@H]1N[C@@H]1CC[C@](CC(F)F)(C(=O)N2C[C@@H]3C[C@H]2CN3c2ccnc(C(F)(F)F)c2)C1` [Example 26, 1,5-anhydro-2,3-dideoxy-3-{[(1R,3S)-3-(2,2-difluoroethyl)-3-({(1S,4S)-5-[2-(trifluoromethyl)pyridin-4-yl]-2,5-diazabicyclo[2.2.1]hept-2-yl}carbonyl)cyclopentyl]amino}-4-O-methyl-D-erythro-pentitol], the IC50 runs as follows: under setting [1], 29.3 nM; under setting [2], 7.85 nM.

As for `CO[C@@H]1COCC[C@@H]1N[C@@H]1CC[C@](CC(F)F)(C(=O)N2C[C@@H]3C[C@H]2CN3c2nccc(C(F)(F)F)n2)C1` [Example 27, 1,5-anhydro-2,3-dideoxy-3-{[(1R,3S)-3-(2,2-difluoroethyl)-3-({(1S,4S)-5-[4-(trifluoromethyl)pyrimidin-2-yl]-2,5-diazabicyclo[2.2.1]hept-2-yl}carbonyl)cyclopentyl]amino}-4-O-methyl-D-erythro-pentitol], the IC50 was found to be 16.2 nM under setting [1] and 2.04 nM under setting [2]. Turning to `CO[C@@H]1COCC[C@@H]1N[C@@H]1CC[C@](CC(F)F)(C(=O)N2C[C@@H]3C[C@H]2CN3c2cccc(C(F)(F)F)n2)C1` [Example 28, 1,5-anhydro-2,3-dideoxy-3-{[(1R,3S)-3-(2,2-difluoroethyl)-3-({(1S,4S)-5-[6-(trifluoromethyl)pyridin-2-yl]-2,5-diazabicyclo[2.2.1]hept-2-yl}carbonyl)cyclopentyl]amino}-4-O-methyl-D-erythro-pentitol], the half-inhibitory concentration (IC50) under setting [2] came out at 1.88 nM. Turning to `CO[C@@H]1COCC[C@@H]1N[C@@H]1CC[C@](CC(F)F)(C(=O)N2C[C@@H]3C[C@H]2CN3c2cncc(C(F)(F)F)n2)C1` [Example 29, 1,5-anhydro-2,3-dideoxy-3-{[(1R,3S)-3-(2,2-difluoroethyl)-3-({(1S,4S)-5-[6-(trifluoromethyl)pyrazin-2-yl]-2,5-diazabicyclo[2.2.1]hept-2-yl}carbonyl)cyclopentyl]amino}-4-O-methyl-D-erythro-pentitol], the IC50 under setting [2] came to 2.75 nM. As to `CO[C@@H]1COCC[C@@H]1N[C@@H]1CC[C@](CC(F)F)(C(=O)N2C[C@@H]3C[C@H]2CN3c2ccnc(C(F)(F)F)n2)C1` [Example 30, 1,5-anhydro-2,3-dideoxy-3-{[(1R,3S)-3-(2,2-difluoroethyl)-3-({(1S,4S)-5-[2-(trifluoromethyl)pyrimidin-4-yl]-2,5-diazabicyclo[2.2.1]hept-2-yl}carbonyl)cyclopentyl]amino}-4-O-methyl-D-erythro-pentitol], the IC50 worked out at 32.9 nM under setting [1] and 11.8 nM under setting [2].

In general, IC50 refers to the concentration at which inhibition is half-maximal.
